Assay results taken from US6303621A, “Method for treating cancers using a diiodo thyronine analogue having no significant hormonal activity and a vinca alkaloid and compositions comprising the same” (priority 1999, dated 2001).
Entries after “also recorded” stand apart in the source; their conditions may differ.

Experiments:
MDA-MB-231 xenografts = test: Inhibition of MDA-MB-231 xenografts in nude mice; format: in vivo, human mammary cancer xenograft in nude mice
From the text: The ability of human tumors to grow as xenografts in athymic mice (e.g., nude mice) provides a useful in vivo model for studying the biological response to therapies for human tumors. Since the first successful xenotransplantation of human tumors into athymic mice (Rygaard et al., 1969, Acta Pathol. Microbial. Scand. 77:758-760), many different human tumor cell lines (e.g., mammary, lung, genitourinary, gastrointestinal, head and neck, glioblastoma, bone and malignant melanomas) have been successfully transplanted and grown into nude mice. Human mammary tumor cell lines, including MCF-7, ZR75-1 and MDA-MB-231, have been established as subcutaneous grafts in nude mice (Warri et al., 1991, Intl. J. Cancer 49:616-23; Ozzello et al., 1980, Eur. J. Cancer 16:553-559; Osbourne et al., 1985, Cancer Res. 45:584-590; Siebert et al., 1983, Cancer Res. 43:2223-2239).
MDA-MB-231 (human mammary cancer) cells were obtained from American Type Culture Collection (Rockville, Md.) and maintained in the recommended growth media. Twenty nude mice were each inoculated subcutaneously with MDA-MB-231 cells (10^6 cells/[…]). To one group often mice, DIME was administered by gavage (250 mg/kg, 10 mL/kg in corn oil) once […] per day, 5 days per week, for a total of 32 days. The other (control) group of ten mice was given administered vehicle only according to the same dosing schedule. Tumors were measured twice weekly using a Vernier caliper, and the mean tumor volume was determined at each time point. Comparisons between groups were made using an unpaired, two-tailed t-test and the results were analyzed using analysis of variance.

[1] = Toxicity, daily oral dosing in nude mice; format: in vivo; details: daily oral dose 1 g/kg, 12-15 days
Method: Ten nude mice were administered a daily oral dose of ^14 C-labeled DIME (Compound 1) (1.0 g/kg, 0.1 mL in corn oil) for a period of 12-15 days.

[2] = Serum half-life and bioavailability of 14C-labeled DIME; format: in vivo; details: mice
Method: Mice were orally dosed with 126 mg/kg 14C-labeled DIME (Compound 1). After dosing, blood sampling times were 15 and 30 minutes and 1, 2, 4, 6, 8 and 24 hours. Aliquots (50 μL) of blood were assayed in a liquid scintillation counter and data expressed as microgram-equivalents per mL. The blood level data were analyzed by the […] method (Micromath, Salt Lake City, Utah). Parallel groups of mice were dosed intravenously with 24.5 mg/kg 14C-labeled DIME and blood sampling times were 10, 20 and 30 minutes and 1, 2, 4, 6 and 8 hours.

[3] = system: MDA-MB-231 human mammary cancer cells; test: Colony formation (cell killing); format: cell-based
Method: c. MDA-MB-231 human mammary cancer cells were cultured and treated as reported previously by Mendeleyev et al., International Journal of Oncology 10:689-695 (1997) and Zhen et al., International Journal of Oncology 10:689-695 (1997). For the assay of cell growth kinetics cells, were seeded into 2cm^2 wells (24-well plates) at a density of 8×10^3 /cm^2 at the time of seeding. Vincristine (or vinblastine) and DIME (or DIPE) were added from DMSO dilutions (1-2 μl/ 500 μl culture mediim) either from separate drug solutions or for the construction of median effect plot (FIG. 1) from a pre-made mixture of both drugs (e.g. 0.75 μM DIME+2 nM vincristine) and simultaneous dilutions thereof (Chou et al. Eur. J. Biochem. 115: 207-216 (1981)). The cultures were incubated at 37° C. for 4 days and growth rates, leading to near confluency in drug-free controls, were monitored by cell counting in a haemocytometer after detachment by trypsin treatment Mendeleyev et al., International Journal of Oncology 10:689-695 (1997) and Zhen et al., International Journal of Oncology 10:689-695 (1997). Mathematical analysis of growth curves and median effects and isobolograms were carried out by published procedures (Chou et al. J. Theor. Biol. 65: 345-356 (1977), Chou et al. Eur. J. Biochem. 115: 207-216 (1981) and Chou et al. Adv. in Enzyme Regulation 22:27-55 (1984)) and error bars indicate SD=Σx^2 +L -(Σx)^2 /n where X is the numerical results with n=3-5.
e. Colony formation was quantitated as reported by. Each colony of 50 cells is the outgrowth from one cell, plated 10 days before colony counting.

tubulin α+β = test: Inhibition of tubulin polymerization / assembly of microtubules; format: biochemical; details: FIG. 4b
Method: The optical tests were performed as reported by Buki et al., International Journal of Oncology 10:911-913 (1997).

[4] = system: metaphase arrest in cancer cells; test: Metaphase block (mitotic block); format: cell-based
From the text: Metaphase was quantitated as reported by Mendeleyev et al., International Journal of Oncology 10:689-695 (1997).
Since vincristine and vinblastine were equivalent here we illustrate only DIME-vinblastine interaction on mitotic block.

caspase 3 = test: Caspase 3 assay in drug-treated cells; format: cell-based, human; details: 0.75 μM DIME or 2 nM vincristine alone, 3 days
Method: g. Caspase 3 assay. MDA 231 cells were grown for 3 days in the absence of drugs (control) or in the presence of 0.75 μM DIME, or in the presence of 2 nM vincristine, or in the presence of both drugs. After harvesting and washing the cells with PBS, they were lysed in a lysis buffer (10 mM HEPES, 5 mM DTT, 2 mM EDTA, 1 mM PMSF, 0.1% CHAPS, 20 μg/ml each of aprotinin, leupeptin, pepstatin, pH 7.4), and were frozen and thawed 3 times. […] Each cell extract was incubated at room temperature with and without preincubation with the caspase inactivator DEVD-CMK. The difference of fluorescence was plotted against time. The fluorescence was calibrated with the fluorophore AFC.

[5] = system: biosynthetic pathways of DNA, RNA or proteins; test: Metabolic action and biosynthetic pathways of DNA, RNA or proteins
nontumorigenic cells = test: DIME uptake / permeation in nontumor cells; format: cell-based; details: versus malignant counterparts
malignant tumor growth = test: Activity of DIME in vivo (general statement)
tadpole metamorphosis = details: in vivo; cited from earlier work
[6] = system: non-malignant mouse pituitary adenoma; details: in vivo; cited from earlier work

For `COC(=O)c1cc(I)c(Oc2ccc(OC)cc2)c(I)c1` [DIME, methyl 3,5-diiodo-4-(4'-methoxyphenoxy) benzoate], the “Growth of mammary cancer xenografts (MDA-MB-231)” value (MDA-MB-231 xenografts; 250 mg/kg by gavage once daily, 5 days a week for 32 days, nude mice) was “significant reduction of malignant tumor growth”, the “MDA-MB-231 tumor volume, Day 14 ± SEM” value (MDA-MB-231 xenografts; DIME 250 mg/kg by gavage, 5 days per week, 32 days, control 284.6 ± 42.0, p = 0.06, in mm³ (unit assumed)) was 172.0 ± 34.3 and the “MDA-MB-231 tumor volume, Day 21 ± SEM” value (MDA-MB-231 xenografts; DIME 250 mg/kg by gavage, control 622.2 ± 58.1, p = 0.02, in mm³ (unit assumed)) was 285.7 ± 62.4. The “MDA-MB-231 tumor volume, Day 32 ± SEM” value (MDA-MB-231 xenografts; DIME 250 mg/kg by gavage, control 1176.6 ± 222.4, p = 0.01, in mm³ (unit assumed)) was 543.8, the “% decrease (tumor volume), Day 14” value (MDA-MB-231 xenografts; DIME 250 mg/kg vs control) was 40% and the “% decrease (tumor volume), Day 21” value (MDA-MB-231 xenografts; DIME 250 mg/kg vs control) was 54%. The “% decrease (tumor volume), Day 28” value (MDA-MB-231 xenografts; DIME 250 mg/kg vs control) was 56%, the “% decrease (tumor volume), Day 32” value (MDA-MB-231 xenografts; DIME 250 mg/kg vs control) was 54% and the Ill effects [1] was “remarkably nontoxic; also recorded: No ill effects were observed”. The “half-life (t1/2) in serum” value [2] was 2 to 2.5 h, the “Inhibition of colony formation, DIME versus DIPE” value ([3]; FIG. 4a) was “equivalency; also recorded: Equivalent effectivity” and the “Reduction of colony formation in parent cell line (factor)” value ([3]; FIG. 8, parent (wild type) cell line) was 10^3. The “Inhibition of assembly of microtubules, DIME versus DIPE” value (tubulin α+β) was “equivalency; also recorded: Inhibitory effects”, the M-block [4] was “induces M-block” and the “Activation of caspase 3, single drug” value (caspase 3) was “small rate of caspase 3 activity”. The “Inhibition of biosynthetic pathways of DNA, RNA or proteins” value [5] was “nor does it inhibit the biosynthetic pathways of DNA, RNA or proteins”, the Metabolic action [5] was “no metabolic action” and the “DIME uptake / permeability of nontumor cells” value (nontumorigenic cells) was “impermeable to DIME; also recorded: take up significantly less DIME”. The Activity in vivo (malignant tumor growth) was “highly active”, the “Metabolic or cell differentiating activity (tadpole metamorphosis)” value (tadpole metamorphosis) was “no significant metabolic or cell differentiating activity” and the “Growth of non-malignant mouse pituitary tumor” value [6] was “no inhibitory activity”.
